# Source: PubChem BioAssay (NCI)
#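 Assay format: 96-well plates, 48-hour exposure. At the TGI there is no net growth.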
# Tests used:
# Assay in all cases: NCI anticancer screen, dose series, 48 h
# IGROV1 ovarian = test system: IGROV1 ovarian
# MALME-3M melanoma = test system: MALME-3M melanoma
# HCC-2998 colon = test system: HCC-2998 colon
# NCI/ADR-RES ovarian = test system: NCI/ADR-RES ovarian
# U251 CNS = test system: U251 CNS
# COLO 205 colon = test system: COLO 205 colon
# SW-620 colon = test system: SW-620 colon
# HS 578T breast = test system: HS 578T breast
# SR leukemia = test system: SR leukemia
# ACHN renal = test system: ACHN renal
# EKVX NSCLC = test system: EKVX NSCLC
# M14 melanoma = test system: M14 melanoma
# SNB-75 CNS = test system: SNB-75 CNS
# BT-549 breast = test system: BT-549 breast
# HOP-92 NSCLC = test system: HOP-92 NSCLC
# T-47D breast = test system: T-47D breast
# SF-539 CNS = test system: SF-539 CNS
# NCI-H23 lung = test system: NCI-H23 lung
# HCT-15 colon = test system: HCT-15 colon
Compound,TGI (IGROV1 ovarian) [µM],TGI (MALME-3M melanoma) [µM],TGI (HCC-2998 colon) [µM],TGI (NCI/ADR-RES ovarian) [µM],TGI (U251 CNS) [µM],TGI (COLO 205 colon) [µM],TGI (SW-620 colon) [µM],TGI (HS 578T breast) [µM],TGI (SR leukemia) [µM],TGI (ACHN renal) [µM],TGI (EKVX NSCLC) [µM],TGI (M14 melanoma) [µM],TGI (SNB-75 CNS) [µM],TGI (BT-549 breast) [µM],TGI (HOP-92 NSCLC) [µM],TGI (T-47D breast) [µM],TGI (SF-539 CNS) [µM],TGI (NCI-H23 lung) [µM],TGI (HCT-15 colon) [µM]
Cc1nc2ccccc2c(=O)n1NC(=O)c1ccccn1,> 100,> 100,> 100,> 100,> 100,> 100,> 100,> 100,> 100,> 100,> 100,> 100,> 100,> 100,> 100,> 100,> 100,> 100,–
Cc1c2c(cc3c1C(=O)C(=O)C([C@@H](C)CO)=C3O)C(C)(C)CCC2,> 100,57.1,–,> 100,53.8,> 100,> 100,> 100,56.7,–,> 100,67.5,86.5,> 100,> 100,> 100,–,45.2,> 100
CC1=CC[C@H](C[C@H](C#CCCCC2OCCO2)O[Si](C(C)C)(C(C)C)C(C)C)C(=O)CC1,> 100,> 100,> 100,> 100,> 100,> 100,> 100,> 100,> 100,> 100,> 100,> 100,> 100,> 100,> 100,> 100,–,> 100,> 100
Cc1nc(N)c(N2CCN(S(N)(=O)=O)CC2)c(=O)[nH]1,–,> 100,> 100,> 100,> 100,> 100,> 100,> 100,> 100,> 100,> 100,> 100,> 100,> 100,–,> 100,> 100,> 100,> 100
O=C(O)c1cccc(Nc2c(C(=O)O)cccc2[N+](=O)[O-])c1,> 100,> 100,> 100,> 100,–,> 100,–,> 100,> 100,> 100,> 100,> 100,> 100,> 100,> 100,> 100,> 100,> 100,> 100
COC(=O)C(=O)C(C(=O)C(=O)Nc1ccccc1C(N)=O)c1nc2ccc(Cl)cc2[nH]c1=O (stereo not given),–,–,> 100,> 100,> 100,> 100,> 100,> 100,> 100,> 100,–,> 100,> 100,> 100,> 100,> 100,> 100,> 100,> 100
CC12CCCC(C(=O)O)(C1)[C@H](C(C)(C)C(=O)O)CC2 (stereo not given in full),> 100,> 100,–,> 100,> 100,> 100,> 100,> 100,> 100,> 100,> 100,> 100,> 100,> 100,> 100,> 100,–,> 100,> 100
OCC1OC(NC(=S)NCCC(F)(F)C(F)(F)C(F)(F)C(F)(F)C(F)(F)C(F)(F)F)C(O)C(O)C1O (stereo not given),> 100,> 100,> 100,> 100,> 100,> 100,> 100,> 100,> 100,> 100,–,> 100,> 100,> 100,> 100,> 100,> 100,> 100,> 100
CC1=NN(c2ccccc2)C2(C1)C(Cl)C(=O)N2c1nc2ccccc2s1 (stereo not given),> 100,> 100,> 100,68.5,> 100,80.6,> 100,> 100,80,> 100,> 100,> 100,> 100,> 100,> 100,> 100,–,77.6,> 100
CC(=O)O[C@H]1C(=O)[C@@]2(C)[C@H]([C@H](OC(=O)c3ccccc3)[C@]3(O)C[C@H](OC(=O)[C@H](O)[C@@H](NC(=O)c4ccc(N)cc4)c4ccccc4)C(C)=C1C3(C)C)[C@]1(OC(C)=O)CO[C@@H]1C[C@@H]2O,> 50,–,0.0545,> 50,> 50,–,> 50,0.0126,> 41.9,> 50,> 50,> 50,> 50,> 50,> 50,> 50,0.0309,–,> 50
CC1(C)C2CC(O)C1(C)CC2=O (stereo not given),> 100,> 100,> 100,> 100,> 100,> 100,> 100,> 100,> 100,> 100,–,> 100,> 100,> 100,> 100,> 100,> 100,> 100,> 100
CC(C)(C)c1cc(S(=O)(=O)O)c2oc(-c3ccccc3)cc(=O)c2c1,> 100,> 100,> 100,> 100,> 100,> 100,> 100,> 100,> 100,> 100,> 100,–,> 100,> 100,–,> 100,> 100,> 100,> 100
COc1ccc(N2C(=O)C3c4[nH]c5ccc(C)cc5c4C4CCC(C(C)(C)C)CC4C3C2=O)cc1 (stereo not given),> 100,–,> 100,33.2,–,> 100,69.8,9.89,32.4,25.5,> 100,34.3,7.7,67.9,–,> 100,36.5,86.5,> 100
CC1=NN(c2cccc(S(=O)(=O)O)c2)C2(C1)C(Cl)C(=O)N2c1nc2ccccc2s1 (stereo not given),3.5,17.3,28.5,26.8,16.3,24.8,21.1,> 80.7,17.4,18.4,26.7,24.6,13.1,18.7,9.95,40.4,–,13.5,17.8
Cc1cccc2nc(-c3ccccc3)cc(=O)n12,> 100,> 100,> 100,> 100,> 100,> 100,> 100,> 100,> 100,> 100,> 100,> 100,–,> 100,> 100,> 100,> 100,> 100,> 100
NC1C/C(=N\O)c2c(Cl)sc(Cl)c21 (stereo not given),32,34.5,> 100,67.3,–,61.4,33.4,> 100,> 100,36.4,34,34.1,76.9,32.9,42.9,39.7,22.1,33.7,33
COc1ccc(CNc2ccn(C3OC(CO)C(O)C3O)c(=O)n2)cc1 (stereo not given),> 100,> 100,> 100,> 100,> 100,> 100,> 100,> 100,> 100,> 100,> 100,> 100,–,> 100,> 100,94.7,> 100,> 100,> 100
COc1cc(C2C3=C(COC3=O)OC(C)(C)Oc3cc4c(cc32)OCO4)cc(OC)c1O (stereo not given),> 100,> 100,7.88,–,> 100,6.68,> 31.3,> 100,> 100,> 100,> 100,> 100,–,> 100,> 94.5,> 100,–,> 22.1,> 100
COc1cc(C(=O)NNC(=O)c2cc(Br)ccc2NC(=O)c2cccs2)cc(OC)c1OC,> 100,86.1,–,62,44.6,25.5,> 100,62.1,> 100,43.6,27,59.8,24.6,> 100,46.9,> 100,30,57.1,62.3
CN1CCC23c4c5ccc(Oc6nnnn6-c6ccccc6)c4OC2c2[nH]c4ccccc4c2CC3(O)C1C5 (stereo not given),23,3.11,3.3,19.7,3.65,–,6.14,33.9,3.72,3.52,24.2,3.38,7.66,36.7,7.71,23.1,–,33.7,6.36
CC[C@]12C=CCN3CC[C@@]4(c5cc(Br)c(OC)c([N+](=O)[O-])c5N(C)[C@H]4[C@@](O)(C(=O)OC)[C@@H]1OC(C)=O)[C@@H]32,61.4,> 100,–,> 100,> 100,> 100,> 100,> 100,> 100,> 100,91.4,> 100,> 100,> 100,–,> 100,> 100,> 100,> 100
CC(C)CCCC(C)[C@H]1CC[C@H]2n3c(nnc3-c3ccccc3)CCC[C@]12C (stereo not given in full),23.4,53.1,0.0669,24,23.5,14.8,47.5,43.3,26.3,–,–,30.1,35.3,41.7,37,37.4,25.1,28.8,68.9
CC(=O)C(C(=O)c1ccc(C)cc1)[C@@H]1OC(C)(C)O[C@@H]1[C@H]1COC(C)(C)O1 (stereo not given in full),> 74.8,34,> 53.4,> 70.9,18.5,39.6,> 54.6,> 59.8,–,32.5,> 100,35.8,> 59.2,> 32.4,> 100,> 49.8,13.2,32.6,37
CN(C)CCn1c(=O)c2ccc(NCCNCCO)c3c(=O)c4ccccc4n(c1=O)c23,1.87,3.41,2.34,16.3,3.07,0.836,> 30.7,1.37,–,15.9,2.41,1.72,0.404,4.81,0.604,7.61,0.593,0.849,6.9
Cc1c(N=Nc2ccccc2)c(-c2ccccc2)n(C2OC(CO)C(O)C(O)C2O)c(=S)c1C#N (stereo not given),22.5,30.6,30.9,46.6,17.7,31.3,24.2,> 100,> 100,18.8,42.5,19.3,> 100,> 100,–,4.74,20.6,16.2,25.5
COc1ccc(NC(=S)Nc2cc(C)ccn2)cc1,> 100,–,> 100,> 100,> 100,> 100,> 100,> 100,> 100,> 100,> 100,–,> 100,> 100,> 100,> 100,> 100,> 100,> 100
